Literature values, collected in patent US5162307A, “Polymer bound elastase inhibitors” (Board of Trustees of the University of Kentucky, priority 1992, dated 1992).

Experiments:
[1] = in vivo
[2] = test system: rabbits; conditions: rabbit, in vivo
[3] = test system: guinea pigs; conditions: guinea pig, in vivo

organ weight ([1]; iv): do not induce any significant changes
total weight gain ([1]; iv): do not induce any significant changes
immune response (antigenicity) [2]: no evidence of an immune response
immune response (antigenicity) [3]: no evidence of an immune response
Substance: poly α, β-[N-(2-hydroxyethyl)-D,L-aspartamide] [PHEA]
effect on the biosynthetic mechanism of the serum proteins or of blood cells [1]: no adverse effect
toxicity [1]: lack toxicity
